The text below walks through data of US20140309295A1, “ANTIEPILEPTIC, HYPOCHOLESTEROLEMIC AND NEUROPROTECTIVE COMPOUND” (NEURON BIOPHARMA, S.A., priority 2009, published 2014).

The structures appear in SMILES notation.

The test system of assay [1] is human neuroblastoma SK-N-MC cells. As to the kind of experiment: Protection against neuronal death induced by inhibition of succinate dehydrogenase (3-NP), WST-1. The conditions noted are these: 40 μM NST0037; 30 μM 3-NP. The assay is classed as cell-based. The protocol:
(§1) The assay was performed on human neuroblastoma SK-N-MC cells in culture from the American Type Culture Collection (ATCC), in all cases strict rules of sterility were followed and the manipulation was performed in class II biological safety cabinets following European standard EN 12469. The cells were maintained in the following culture medium: Minimum Essential Medium Eagle (MEM) supplemented with 1 mM sodium pyruvate, 2 mM L-glutamine, 0.1 mM non-essential amino acids, 0.05 mg/ml gentamicin and 10% fetal bovine serum.
The inhibition caused by compound NST0037 of cell death caused by treatment with 3-Nitropropionic (3-NP) acid was analyzed. 3-NP is an irreversible inhibitor of the succinate dehydrogenase enzyme which in animal models causes oxidative stress and apoptotic cell death in the striatum, which mimics neurochemical and anatomical changes associated with Huntington's disease (HD). […]
The cells were incubated (at 37° C. and 5% CO2) with these treatments for 22 hours, after which time the WST-1 reagent (Roche) was added. […] The formazan which is formed can be detected colorimetrically since it has an absorbance of 440 nm. The reading was taken in a plate reader at 440 nm 2 hours after adding the reagent.
(In general: Tetrazolium dyes change colour on reduction, which living cells bring about.)

For assay [2] the test system is unchanged. As to the kind of experiment: Protection against neuronal death induced by endoplasmic reticulum stress (tunicamycin), WST-1. The assay is classed as cell-based. The conditions noted are these: 40 μM NST0037; 24 μM tunicamycin. Here is the method:
as §1
The inhibition caused by compound NST0037 of cell death caused by treatment with tunicamycin generating reticular stress was analyzed. Tunicamycin is an inhibitor of protein N-glycosylation, causing abnormal protein folding in the endoplasmic reticulum, therefore said proteins are accumulated and cause stress, resulting in cell death. These cells, not exceeding 15 passages, were seeded on 96-well plates treated for adherent cells with a cell concentration of 5×10^4 cells/well; 3 wells of the plate were seeded for each condition of the assay. […]
The cells were incubated (at 37° C. and 5% CO2) with these treatments for 22 hours, after which time WST-1 reagent (Roche) was added. […] The formazan that is formed can be detected colorimetrically since it has an absorbance of 440 nm. The reading was taken in a plate reader at 440 nm 2 hours after adding the reagent.

The test system of assay [3] is FVB/NHan mice inoculated with kainate (KA). As to the kind of experiment: Neuronal death in the hippocampus of mice caused by kainate (hematoxylin-eosin). The assay is classed as in vivo. The conditions noted are these: 50 mg/kg i.p., 7 days. Here is the method: All the animals included for the experimental process were 12-week old males of the FVB/NHan strain. The experiments were conducted strictly following the Guidance on the Operation of Animals (Scientific Procedures, Act. 1986). The animals had their respective quarantine period and were treated with maximum precaution to minimize possible contaminations for inoculations and handling. […]

As for `CCC(CC)C(=O)O[C@H]1C[C@@H](C)C=C2C=C[C@H](C)[C@H](CC[C@@H]3C[C@@H](O)CC(=O)O3)[C@H]21` [NST0037, (1S,2S,6R,8S,8aR)-1,2,6,7,8,8a-hexahydro-3,7-dimethyl-8-[2-[(2R,4R)-tetrahydro-4-hydroxy-6-oxo-2H-pyran-2-yl]ethyl]-1-naphthalenyl-2-ethyl-butyrate], in assay [1], the “protection against death caused by 3-NP” value worked out at 41%. Besides, in assay [2], the “protection against death caused by Tm” value was found to be 55%. In addition, the “neuronal death in hippocampal CA1 and CA2 regions” value in assay [3] (NST0037+KA+NST0037 regimen, KA 25 mg/Kg) was “completely protected against neuronal death”; in assay [3] (PBS+KA+NST0037 regimen (treatment after KA)), “qualitatively reduced neuronal death and damage”.
